What all share (assay): greenhouse test, pre-emergence treatment
What all share (format): in vivo
Common to all, as to details: scale from 0 to 100

One assay relates to Amaranthus retroflexus. The source says: (§1) The culture containers used were plastic flowerpots containing loamy sand with approximately 3.0% of humus as the substrate. The seeds of the test plants were sown separately for each species.
(§2) For the pre-emergence treatment, the active ingredients, which had been suspended or emulsified in water, were applied directly after sowing by means of finely distributing nozzles. The containers were irrigated gently to promote germination and growth and subsequently covered with transparent plastic hoods until the plants had rooted. This cover caused uniform germination of the test plants, unless this had been impaired by the active ingredients. For the post-emergence treatment, the test plants were first grown to a height of 3 to 15 cm, depending on the plant habit, and only then treated with the active ingredients which had been suspended or emulsified in water. For this purpose, the test plants were either sown directly and grown in the same containers, or they were first grown separately as seedlings and transplanted into the test containers a few days prior to treatment.
(§3) Depending on the species, the plants were kept at 10-25° C. or 20-35° C., respectively. The test period extended over 2 to 4 weeks. During this time, the plants were tended, and their response to the individual treatments was evaluated.
(§4) Evaluation was carried out using a scale from 0 to 100. 100 means no emergence of the plants, or complete destruction of at least the aerial moieties, and 0 means no damage, or normal course of growth. A moderate herbicidal activity is given at values of at least 60, a good herbicidal activity is given at values of at least 70, and a very good herbicidal activity is given at values of at least 85.
(§5) The plants used in the greenhouse experiments were of the following species: […]

The subject of the next assay is Echinocloa crus-galli.
Source text: as §1, §2, §3, §4, §5

In the next assay the test system is Setaria faberi.
Source text: as §1, §2, §3, §4, §5

A further assay deals with Abutilon theophrasti.
Source text: as §1, §2, §3, §4, §5

The test system of a further assay is Apera spica-venti.
Source text: as §1, §2, §3, §4, §5

Take `Nc1nc(Nc2c(F)c(F)nc(F)c2F)nc(C2(Cl)CCCC2)n1` [Example 58]: the herbicidal activity result in the assay on Amaranthus retroflexus (250 g/ha), in the assay on Echinocloa crus-galli (250 g/ha) and in the assay with Setaria faberi (250 g/ha) was “very good (a very good herbicidal activity is given at values of at least 85)” throughout.
On to `CCC(F)c1nc(N)nc(Nc2c(F)c(F)nc(F)c2F)n1` (centres unmarked) [Example 63], for which the herbicidal activity result in the assay with Amaranthus retroflexus (125 g/ha), in the assay with Abutilon theophrasti (125 g/ha) and in the assay with Setaria faberi (125 g/ha) was “very good (a very good herbicidal activity is given at values of at least 85)” in each case.
Consider `CCC(C)(F)c1nc(N)nc(Nc2nc(F)c(F)cc2F)n1` (racemic) [Example 14], for which the herbicidal activity result in the assay with Amaranthus retroflexus (62.5 g/ha), in the assay with Abutilon theophrasti (62.5 g/ha) and in the assay with Setaria faberi (62.5 g/ha) was “very good (a very good herbicidal activity is given at values of at least 85)” in each case.
Regarding `CC1CCC(c2nc(N)nc(Nc3c(F)c(F)nc(F)c3F)n2)CC1` (centres unmarked) [Example 64], the herbicidal activity entry with Amaranthus retroflexus (250 g/ha), in the assay on Abutilon theophrasti (250 g/ha) and in the assay with Setaria faberi (250 g/ha) was “very good (a very good herbicidal activity is given at values of at least 85)” each time.
As to `Nc1nc(Nc2c(F)c(F)nc(F)c2F)nc(C2(F)CCCC2)n1` [Example 66], the herbicidal activity entry in the assay with Amaranthus retroflexus (250 g/ha), in the assay on Abutilon theophrasti (250 g/ha) and in the assay on Setaria faberi (250 g/ha) was “very good (a very good herbicidal activity is given at values of at least 85)” each time.
For `COc1c(F)c(F)nc(Nc2nc(N)nc(C(C)(C)F)n2)c1F` [Example 31], the herbicidal activity result in the assay with Amaranthus retroflexus (250 g/ha), in the assay on Abutilon theophrasti (250 g/ha) and in the assay on Setaria faberi (250 g/ha) was “very good (a very good herbicidal activity is given at values of at least 85)” throughout.
On to `CCC(C)(F)c1nc(N)nc(Nc2nc(F)c(F)c(Cl)c2F)n1` (centres unmarked) [Example 13], for which the herbicidal activity result in the assay on Amaranthus retroflexus (62.5 g/ha), in the assay with Echinocloa crus-galli (62.5 g/ha) and with Setaria faberi (62.5 g/ha) was “very good (a very good herbicidal activity is given at values of at least 85)” throughout.
On to `CC1(c2nc(N)nc(Nc3c(F)c(F)nc(F)c3F)n2)CCCC1` [Example 67], for which, in the assay on Amaranthus retroflexus (250 g/ha), the herbicidal activity result is reported as “very good (a very good herbicidal activity is given at values of at least 85)”.
`Nc1nc(Nc2c(F)c(F)nc(F)c2F)nc(C(F)(F)F)n1` [Example 50]: the herbicidal activity entry with Apera spica-venti (500 g/ha) is “good (a good herbicidal activity is given at values of at least 70)”; with Amaranthus retroflexus (500 g/ha), “very good (a very good herbicidal activity is given at values of at least 85)”.
Take `Cc1c(F)c(F)nc(Nc2nc(N)nc(C(C)(C)F)n2)c1F` [Example 29]: the herbicidal activity entry in the assay on Amaranthus retroflexus (125 g/ha), in the assay on Abutilon theophrasti (125 g/ha) and in the assay with Setaria faberi (125 g/ha) was “very good (a very good herbicidal activity is given at values of at least 85)” in each case.
As to `Nc1nc(Nc2nc(F)c(F)c(Cl)c2F)nc(C2(F)CCCC2)n1` [Example 12], the herbicidal activity entry with Amaranthus retroflexus (125 g/ha), in the assay with Echinocloa crus-galli (125 g/ha) and in the assay on Setaria faberi (125 g/ha) was “very good (a very good herbicidal activity is given at values of at least 85)” throughout.
For `COC(C)c1nc(N)nc(Nc2c(F)c(F)nc(F)c2F)n1` (centres unmarked) [Example 61], the herbicidal activity entry in the assay with Amaranthus retroflexus (500 g/ha) and in the assay with Abutilon theophrasti (500 g/ha) was “very good (a very good herbicidal activity is given at values of at least 85)” throughout.
As for `CC(C)(C#N)c1nc(N)nc(Nc2c(F)c(F)nc(F)c2F)n1` [Example 57], the herbicidal activity entry in the assay with Amaranthus retroflexus (250 g/ha) and in the assay with Abutilon theophrasti (250 g/ha) was “very good (a very good herbicidal activity is given at values of at least 85)” in each case.
Consider `Nc1nc(Nc2nc(F)c(F)c(Cl)c2F)nc(C2CCCC2)n1` [Example 17], for which the herbicidal activity result in the assay with Amaranthus retroflexus (250 g/ha) is on record as “good (a good herbicidal activity is given at values of at least 70)”.
In the case of `CC(C)(C)c1nc(N)nc(Nc2c(F)c(F)nc(F)c2F)n1` [Example 62], the herbicidal activity entry with Amaranthus retroflexus (250 g/ha), in the assay with Abutilon theophrasti (250 g/ha) and in the assay on Setaria faberi (250 g/ha) was “very good (a very good herbicidal activity is given at values of at least 85)” each time.
`CC(C)(F)c1nc(N)nc(Nc2nc(F)c(F)c(OS(C)(=O)=O)c2F)n1` [Example 37]: the herbicidal activity entry in the assay on Apera spica-venti (250 g/ha) was “good (a good herbicidal activity is given at values of at least 70)”; with Amaranthus retroflexus (250 g/ha), “very good (a very good herbicidal activity is given at values of at least 85)”.
For the compound `COC(C)(C)c1nc(N)nc(Nc2nc(F)c(F)c(Cl)c2F)n1` [Example 22], the herbicidal activity result in the assay on Amaranthus retroflexus (250 g/ha) is recorded as “very good (a very good herbicidal activity is given at values of at least 85)”.
For the compound `Nc1nc(Nc2nc(F)c(F)c(Cl)c2F)nc(C2(Cl)CCCC2)n1` [Example 11], the herbicidal activity entry in the assay with Amaranthus retroflexus (500 g/ha), in the assay with Abutilon theophrasti (500 g/ha) and in the assay with Setaria faberi (500 g/ha) was “very good (a very good herbicidal activity is given at values of at least 85)” each time.
As for `Nc1nc(Nc2c(F)c(F)nc(F)c2F)nc(C2(F)CCC2)n1` [Example 70], the results for the herbicidal activity entry with Apera spica-venti (1000 g/ha) and in the assay with Amaranthus retroflexus (1000 g/ha) were “good (a good herbicidal activity is given at values of at least 70)” and “very good (a very good herbicidal activity is given at values of at least 85)”, respectively.
Take `CC(C)C(F)c1nc(N)nc(Nc2nc(F)c(F)c(Cl)c2F)n1` (centres unmarked) [Example 32]: the herbicidal activity result with Amaranthus retroflexus (125 g/ha), with Echinocloa crus-galli (125 g/ha) and with Setaria faberi (125 g/ha) was “very good (a very good herbicidal activity is given at values of at least 85)” each time.
In the case of `CCC(F)(CC)c1nc(N)nc(Nc2nc(F)c(F)c(Cl)c2F)n1` [Example 30], the herbicidal activity entry in the assay with Amaranthus retroflexus (250 g/ha), in the assay on Echinocloa crus-galli (250 g/ha) and with Setaria faberi (250 g/ha) was “very good (a very good herbicidal activity is given at values of at least 85)” each time.
For the compound `CC1(c2nc(N)nc(Nc3c(F)c(F)nc(F)c3F)n2)CCCCC1` [Example 68], the herbicidal activity result in the assay with Amaranthus retroflexus (250 g/ha) is “very good (a very good herbicidal activity is given at values of at least 85)”.
In the case of `CCC(C)(F)c1nc(N)nc(Nc2c(F)c(F)nc(F)c2F)n1` (centres unmarked) [Example 52], the herbicidal activity entry in the assay with Amaranthus retroflexus (250 g/ha), with Echinocloa crus-galli (250 g/ha) and with Abutilon theophrasti (250 g/ha) was “very good (a very good herbicidal activity is given at values of at least 85)” each time.
For the compound `CCC(F)(CC)c1nc(N)nc(Nc2c(F)c(F)nc(F)c2F)n1` [Example 71], the herbicidal activity result in the assay on Amaranthus retroflexus (250 g/ha), in the assay with Abutilon theophrasti (250 g/ha) and in the assay with Setaria faberi (250 g/ha) was “very good (a very good herbicidal activity is given at values of at least 85)” in each case.
Regarding `CC(C)(F)c1nc(N)nc(Nc2c(F)ccnc2F)n1` [Example 48], in the assay with Amaranthus retroflexus (125 g/ha), the herbicidal activity entry is “very good (a very good herbicidal activity is given at values of at least 85)”.
On to `CCC(C)c1nc(N)nc(Nc2c(F)c(F)nc(F)c2F)n1` (centres unmarked) [Example 69], for which the herbicidal activity result in the assay on Amaranthus retroflexus (125 g/ha) and in the assay on Abutilon theophrasti (125 g/ha) was “very good (a very good herbicidal activity is given at values of at least 85)” each time.

Values taken from patent publication US10479777B2, “Herbicidal azines” (BASF SE, priority 2013, dated 2019).
